Laboratory results reported in patent US8329741B2, “Substituted pyrrolidine compounds with central nervous system activity” (The Research Foundation of State University of New York, priority 2007, dated 2012).
“Also recorded” adds a separate entry of the source. Where a name gives a salt, the structure may show the parent alone.

Legend:
[1] = Preparation of drug solutions (dissolution in DMSO); type: physicochemical; settings: stock solution preparation
Description: (§1) Stock solutions of the drugs (DC1 to DC20) were dissolved in DMSO, and then diluted to 10 mg/10 mL with distilled water such that the final concentration of DMSO was 0.5%. Each animal received 10 mg/kg of the test drug in a volume of 0.1 mL per 10 g. […] These compounds were sonicated for 30 minutes in DMSO, acidified to pH 4 to 5 by drop-wise addition of 1M HCl, and then suspended in 20% cyclodextrin solution.

chakragati (ckr) mice = test: Screening of candidate compounds based on motor activity in ckr mice; type: in vivo, mouse; settings: for overall biological activity: based on receptor binding data and ckr mouse screening data (FIGS. 1 and 2, ANOVA)
Description: To test the effect of compounds, including compounds of the present invention, on CNS function, chakragati (ckr) mice were used as a model. The DC series compounds were tested on motor activity and PPI in ckr mice.
as §1
Twenty ckr mice (male and female, 3 months old) were randomly assigned to receive test drugs or 0.5% DMSO vehicle. Each drug was tested in 5 mice. Each mouse received up to 5 randomly assigned drugs in random order. Each treatment was separated by a minimum washout period of 3 days. On the day of testing, mice were brought into the behavioral test room and allowed to acclimatize for at least 1 hour. They then received intraperitoneal injections of the 0.1 mL/10 g (10 mg/kg) of the test drug solutions or vehicle.
They were returned to their cage and 20 minutes later they were placed in a 190 mm diameter, 300 mm deep circular recording chamber. Four mice were tested simultaneous in 4 separate chambers. Between each testing session the chambers were wiped down with 70% ethanol and allowed to dry for at least 10 minutes The mice were monitored with an overhead video camera for 15 min. Their behavior was videotaped and simultaneously digitized and tracked (Ethovision Version 2, Noldus). The total distance moved, the velocity of movement, and the time spent moving were calculated.
The data for each parameter were separately analyzed by one-way ANOVA (Analysis of Variance) and post hoc Dunnett's comparisons with the vehicle-treated control group. Tukey's HSD test was applied for post hoc comparisons between groups. p<0.05 was considered statistically significant.

ckr mouse = test: Validation of ckr mouse model with antipsychotics (hyperactivity and circling); type: in vivo; settings: concentrations relevant to human clinical use
Description: The ckr mouse was serendipitously created as a result of a transgenic insertional mutation. […] The ckr mouse also appears to show reduced social interactions resembling the social withdrawal that is part of the constellation of negative symptoms of schizophrenia. The mouse also presents lateral ventricular enlargement, which may mirror neuropathological observations in schizophrenia.
The model has been further validated by testing risperidone, haloperidol and pimozide in the ckr mouse. The behavioral output was assayed by measuring the rate of hyperactivity and circling after administration. […] Based on the foregoing, the ckr mouse model is considered to be valid for evaluation of compounds for use in reducing the symptoms of neuropsychiatric disorders in mammals, including humans.

5-HT transport sites = target: T1, 5-HT transport sites (Rattus norvegicus, UniProt P31652); test: Displacement of [3H]paroxetine binding in membranes from rat frontal cortex
T1 construct: striatum and frontal cortex dissected from frozen Sprague-Dawley rat brains (Pel-Freez, Rogers, Ark.); tissue Pel-Freez, Rogers, Ark; host or cells: rat frontal cortex membranes (Sprague-Dawley rat brain)
Description: Binding of substituted pyrrolidine compounds at biogenic amine transporters was determined using striatum and frontal cortex dissected from frozen Sprague-Dawley rat brains (Pel-Freez, Rogers, Ark.). Affinities of the compounds at dopamine (DA) transport sites were determined by displacement of [^125I] 3 beta-(4-iodophenyl)tropan-2 beta-carboxylic acid methyl ester (RTI-55) binding in membranes from rat striatum, using 0.5 mg (original wet weight) of membranes and 10 pM [^125I]RTI-55. Non-specific binding was determined in the presence of 1 μM 2β-propanoyl-3β-(2-naphthyl) tropane (WF-23). Affinities of the compounds at 5-HT transport sites were determined by displacement of [^3H]paroxetine binding in membranes from rat frontal cortex, using 50 mg (original wet weight) of membranes and 0.4 nM [^3H]paroxetine. Non-specific binding was determined in the presence of 10 μM fluoxetine. Binding of the compounds at norepinephrine (NE) transport sites was determined by displacement of [^3H]nisoxetine binding in membranes from rat forebrain, using 0.7 nM [^3H]nisoxetine. Non-specific binding was determined in the presence of 1 μM desipramine.
Potencies in FIGS. 3 and 4 were calculated from displacement curves using 7-10 concentrations of unlabeled compounds, as analyzed by non-linear curve fitting. […]

T1 sequence (P31652 whole entry): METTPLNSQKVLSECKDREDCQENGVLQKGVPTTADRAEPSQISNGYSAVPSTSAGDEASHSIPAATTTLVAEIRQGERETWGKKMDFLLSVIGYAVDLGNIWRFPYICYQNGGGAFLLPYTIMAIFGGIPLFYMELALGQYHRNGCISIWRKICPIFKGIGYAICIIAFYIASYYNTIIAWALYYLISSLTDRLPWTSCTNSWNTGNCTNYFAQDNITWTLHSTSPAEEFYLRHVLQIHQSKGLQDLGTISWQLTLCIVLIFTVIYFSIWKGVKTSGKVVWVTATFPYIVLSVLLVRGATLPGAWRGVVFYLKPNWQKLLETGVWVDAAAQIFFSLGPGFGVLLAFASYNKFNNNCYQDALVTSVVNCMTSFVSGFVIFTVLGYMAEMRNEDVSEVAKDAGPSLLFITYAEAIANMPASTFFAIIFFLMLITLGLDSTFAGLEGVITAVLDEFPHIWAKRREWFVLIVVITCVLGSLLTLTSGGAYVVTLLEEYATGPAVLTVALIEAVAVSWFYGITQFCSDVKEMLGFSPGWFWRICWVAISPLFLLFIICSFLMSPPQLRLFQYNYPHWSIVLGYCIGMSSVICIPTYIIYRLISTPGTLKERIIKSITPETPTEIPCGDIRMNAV

For COC(=O)[C@H](c1ccc2ccccc2c1)[C@@H]1C[C@@H](OC)CN1 [DC16, (R)-methyl 2-((2S,4R)-4-methoxypyrrolidin-2-yl)-2-(naphthalen-2-yl)acetate hydrochloride], the “solubility in DMSO alone” value [1] was “difficult to dissolve in DMSO alone”, the overall biological activity (chakragati (ckr) mice; hydrochloride) was “has biological activity; also recorded: favorable biological activity” and the total distance moved (chakragati (ckr) mice; ckr mice, 10 mg/kg intraperitoneal, 20 minutes after injection, monitored 15 min, vs vehicle (FIG. 1a)) was “trend towards decreased”. For the same compound, the velocity of movement (chakragati (ckr) mice; ckr mice, 10 mg/kg intraperitoneal, 20 minutes after injection, monitored 15 min, vs vehicle (FIG. 1b)) was “trend towards decreased” and the time spent moving (chakragati (ckr) mice; ckr mice, 10 mg/kg intraperitoneal, 20 minutes after injection, monitored 15 min, vs vehicle (FIG. 1c)) was “trend towards a decrease”.

In the case of O=C(CCCN1CCC(O)(c2ccc(Cl)cc2)CC1)c1ccc(F)cc1 [haloperidol], the “hyperactivity in ckr mice” value (ckr mouse) is reported as “dose-dependent attenuation”.

With COC(=O)[C@H](c1ccc(Cl)c(Cl)c1)[C@@H]1C[C@@H](O)CN1 [DC-17, (R)-methyl 2-(3,4-dichlorophenyl)-2-((2S,4R)-4-hydroxypyrrolidin-2-yl)acetate hydrochloride] the overall biological activity (chakragati (ckr) mice) was “favorable biological activity”.

For COC(=O)[C@H](c1ccc2ccccc2c1)[C@@H]1C[C@@H](O)CN1.Cl [HDMP-80, (R)-methyl 2-((2S,4R)-4-hydroxypyrrolidin-2-yl)-2-(naphthalen-2-yl)acetate hydrochloride], the “binding affinity for the serotonin transporter” value (5-HT transport sites) was “high binding affinity”.

In the case of Cc1nc2n(c(=O)c1CCN1CCC(c3noc4cc(F)ccc34)CC1)CCCC2 [risperidone], the “hyperactivity in ckr mice” value (ckr mouse) is reported as “dose-dependent attenuation”.
